Each structure is given as a SMILES string.

This data set in a line: UV maxima for the absorption. The format is physicochemical. Conditions: spectral region of the absorption. From the text: The following comparison is a common silicone backbone, with differing, “b”, and “c” values. The effect upon solubility at 5% in water and the UV maxima for the absorption are quite dramatic.

As to `C=CCc1ccc(O)c(OC)c1` [eugenol, 2-methoxy-4-(2 propenyl)phenol], the UV absorption region result is “UV-C region”.

For the origin of these results see US6500414B2, “Aromatic dimethicone copolyol polymers as sunscreen agents in personal care applications” (Siltech LLC, priority 2000, dated 2002).
